Where two headings read alike, the source gives them in different places.
Molecular target: T1, human farnesyl transferase (Homo sapiens, UniProt P49354+P49356)
T1 construct: human farnesyl transferase purified from THP1 cell cultures; endogenous in cells; host or cells: THP1 cell cultures (enzyme purified from the cells)
Assay: inhibition of farnesyl transferase ((3H) farnesyl transfer from (3H) FPP to p21 H-ras)
Type: biochemical
Method in brief: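 Radiometric transfer of [3H]farnesyl from 4.5 pmol [3H]FPP to 200 pmol p21 H-ras by ~5 ng human enzyme purified from THP1 cells, in 50 mM Tris-HCl, 5 mM MgCl2, 5 mM DTT, 0.2% octyl glucoside, 20 min at 37 °C. Protein precipitated with SDS/TCA in methanol, filter-bound counts measured; IC50 from 9 concentrations, triplicate.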

[1] = human farnesyl transferase purified from THP1 cell cultures, p21 H-ras substrate, 20 minutes at 37° C., 9 concentrations, read-out: in vitro inhibitory activity IC50

Structure (SMILES) | IC50 [1] [nM] | IC50 [nM]
COc1ccccc1CC(=O)N1C[C@H]2[C@@]3(c4ccccc4)CC[C@H](c4ccccc43)[C@@]2(C[n+]2ccccc2)C1 (relative stereo) [Example 18, N-[(3aRS, 4SR, 9SR, 9aRS)-4,9-ethano-2-(2-methoxyphenyl)acetyl-9-phenyl-2,3,3a,4,9,9a-hexahydro-1H-benzo[f]isoindolyl-3a-methyl]pyridinium trifluoromethanesulphonate] | 10000 | –
COc1ccccc1CC(=S)N1C[C@@H]2[C@]3(c4ccccc4)CC[C@@H](c4ccccc43)[C@]2(C(=O)O)C1 (relative stereo) [Example 65, (3aRS,4SR,9SR,9aRS)-4,9-Ethano-2-(2-methoxyphenyl)thioacetyl-9-phenyl-2,3,3a,4,9,9a-hexahydro-1H-benzo[f]isoindole-3a-carboxylic acid] | – | 410
COc1ccccc1NC(=O)N1C[C@@H]2[C@]3(c4ccccc4)CC[C@@H](c4ccccc43)[C@]2(C(=O)O)C1 (relative stereo) [Example 66, (3aRS,4SR,9SR,9aRS)-4,9-Ethano-2-(2-methoxyphenyl)aminocarbonyl-9-phenyl-2,3,3a,4,9,9a-hexahydro-1H-benzo[f]isoindole-3a-carboxylic acid] | – | 9200
COc1ccccc1CC(=O)N1C[C@@H]2[C@]3(c4ccccc4)CC[C@@H](c4ccc(I)cc43)[C@]2(C(=O)O)C1 (relative stereo) [Example 43, (3aRS,4SR,9SR,9aRS)-4,9-ethano-7-iodo-2-(2-methoxyphenyl)acetyl-9-phenyl-2,3,3a,4,9,9a-hexahydro-1H-benzo[f]isoindole-3a-carboxylic acid] | – | 700
CCOP(=O)(C[C@]12CN(C(=O)Cc3ccccc3OC)C[C@H]1[C@@]1(c3ccccc3)CC[C@@H]2c2ccccc21)OCC (relative stereo) [Example 22, diethyl ester of [(3aRS, 4SR, 9SR, 9aRS)-4,9-ethano-2-(2-methoxyphenyl)acetyl-9-phenyl-2,3,3a,4,9,9a-hexahydro-1H-benzo[f]isoindol-3a-yl]methylphosphonic acid] | – | 10000
C=C(C(=O)N1C[C@H]2[C@@]3(c4ccccc4)CC[C@H](c4ccccc43)[C@@]2(C(=O)O)C1)c1ccccc1OC [Example 39, (3aS,4R,9R,9aS)-4,9-ethano-2-[2-(2-methoxyphenyl)prop-2-en-1-oyl]-9-phenyl-1,2,3,3a,9,9a-hexahydro-1H-benzo[f]isoindole-3a-carboxylic acid] | 50 | –
O=C(Cc1ccccc1Cl)N1C[C@@H]2[C@]3(c4ccccc4)CC[C@@H](c4ccccc43)[C@]2(C(=O)O)C1 (relative stereo) [Example 61, (3aRS,4SR,9SR,9aRS)-4,9-Ethano-2-(2-chlorophenyl)acetyl-9-phenyl-2,3,3a,4,9,9a-hexahydro-1H-benzo[f]isoindole-3a-carboxylic acid] | – | 4700
COc1ccccc1CC(=O)N1C[C@H]2[C@@]3(c4ccccc4)CC[C@H](c4ccccc43)[C@@]2(C(=O)N[C@H](C)c2ccccc2)C1 [Example 57, N-[(R)-1-phenylethyl]-4,9-ethano-2-(2-methoxyphenyl)acetyl-9-phenyl-2,3,3a(S),4(R),9(R),9a(S)-hexahydro-1H-benzo[f]isoindole-3a-carboxamide] | 860 | –
CSc1ccccc1CC(=O)N1CC2C3(c4ccccc4)CCC(c4ccccc43)C2(C(=O)O)C1 (single isomer, unassigned) [Example 31] | – | 620
CCOC(=O)CC(=O)N[C@]12CN(C(=O)Cc3ccccc3OC)C[C@H]1[C@@]1(c3ccccc3)CC[C@@H]2c2ccccc21 (relative stereo) [Example 15, (3aRS, 4SR, 9SR, 9aRS)-4,9-ethano-3a-ethoxycarbonylacetylamino-2-(2-methoxyphenyl)acetyl-9-phenyl-2,3,3a,4,9,9a-hexahydro-1H-benzo[f]isoindole] | 9000 | –
COc1ccccc1[C@@H](C)C(=O)N1CC2C3(c4ccccc4)CCC(c4ccccc43)C2(C(=O)O)C1 (single isomer, unassigned) [Example 33] | – | 2030
COc1ccccc1CC(=O)N1C[C@H]2[C@@]3(c4ccccc4)CC[C@H](c4ccccc43)[C@@]2(C(=O)O)C1 [Example 47, 4,9-ethano-2-[(2-methoxyphenyl)acetyl]-9-phenyl-2,3,3a(S),4(R),9(R),9a(S)-hexahydro-1H-benzo[f]isoindole-3a-carboxylic acid] | – | 140

The next lines start with results.

IC50 [1] [nM] | Structure (SMILES) | IC50 [nM]
2950 | CC(C)Oc1ccccc1CC(=O)N1C[C@@H]2[C@]3(c4ccccc4)CC[C@@H](c4ccccc43)[C@]2(C(=O)O)C1 (relative stereo) [Example 40, (3aRS,4SR,9SR,9aRS)-4,9-ethano-2-(2-isopropyl-oxyphenyl)acetyl-9-phenyl-2,3,3a,4,9,9a-hexahydro-1H-benzo[f]isoindole-3a-carboxylic acid] | –
2600 | COc1ccccc1CC(=O)N1C[C@H]2[C@@]3(c4ccccc4)CC[C@H](c4ccccc43)[C@@]2(CP(=O)(O)O)C1 (relative stereo) [Example 23] | –
150 | COc1ccccc1CC(=O)N1CC2C3(c4ccccc4)CCC(c4ccccc43)C2(C(=O)N[C@@H](CCSC)C(=O)O)C1 (stereo partly drawn) [Example 51, N-[(3aRS,4SR,9SR,9aRS)-4,9-ethano-2-(2-methoxy-phenyl)acetyl-9-phenyl-2,3,3a,4,9,9a-hexahydro-1H-benzo[f]isoindol-3a-yl]carbonyl-L-methionine] | –
6700 | C/C=C(/C(=O)N1C[C@H]2[C@@]3(c4ccccc4)CC[C@H](c4ccccc43)[C@@]2(C(=O)OC)C1)c1ccccc1OC (relative stereo) [Example 77, methyl ester of (3aRS,4SR,9SR,9aRS)-4,9-ethano-2-[2(E)-(2-methoxyphenyl)-2-butenoyl]-9-phenyl-2,3,3a,4,9,9a-hexahydro-1H-benzo[f]isoindole-3a-carboxylic acid] | –
970 | C=C(C(=O)N1C[C@H]2[C@@]3(c4ccccc4)CC[C@H](c4ccccc43)[C@@]2(C(=O)NCc2ccc(OC)c(OC)c2)C1)c1ccccc1OC [Example 90, (3aS,4R,9R,9aS)-N-(3,4-dimethoxybenzyl)-4,9-ethano-2-[(2-methoxyphenyl)prop-2-en-1-oyl]-9-phenyl-2,3,3a,4,9,9a-hexahydro-1H-benzo[f]isoindole-3a-carboxamide] | –
3700 | COc1cccc(CC(=O)N2C[C@@H]3[C@]4(c5ccccc5)CC[C@@H](c5ccccc54)[C@]3(C(=O)O)C2)c1OC (relative stereo) [Example 36, (3aRS, 4SR, 9SR, 9aRS)-4,9-ethano-2-(2,3-dimethoxyphenyl)acetyl-9-phenyl-2,3,3a,4,9,9a-hexahydro-1H-benzo[f]isoindole-3a-carboxylic acid] | –
2250 | COc1ccccc1CC(=O)N1C[C@H]2[C@@]3(c4ccccc4)CC[C@H](c4ccccc43)[C@@]2(C(=O)N(C)OC)C1 (relative stereo) [Example 68, (3aRS,4SR,9SR,9aRS)-N-methoxy-N-methyl-4,9-ethano-2-(2-methoxy-phenyl)acetyl-9-phenyl-2,3,3a,4,9,9a-hexahydro-1H-benzo[f]isoindole-3a-carboxamide] | –
950 | COc1ccccc1CC(=O)N1C[C@H]2[C@@]3(c4ccccc4)CC[C@H](c4ccccc43)[C@@]2(C(=O)NCC(=O)O)C1 (relative stereo) [Example 67, N-[(3aRS,4SR,9SR,9aRS)-4,9-ethano-2-(2-methoxy-phenyl)acetyl-9-phenyl-2,3,3a,4,9,9a-hexahydro-1H-benzo[f]isoindol-3a-yl]carbonylglycine] | –
110 | C=C(C(=O)N1C[C@@H]2[C@]3(c4ccccc4)CC[C@@H](c4ccccc43)[C@]2(C(=O)NOC)C1)c1ccccc1OC (racemic) [Example 44, (3aRS,4SR,9SR,9aRS)-N-methoxy-4,9-ethano-2-[2-(2-methoxyphenyl)prop-2-en-1-oyl]-9-phenyl-2,3,3a,4,9,9a-hexahydro-1H-benzo[f]isoindole-3a-carboxamide] | –
3900 | COc1ccccc1CC(=O)N1C[C@@H]2[C@]3(c4ccccc4)CC[C@@H](c4ccccc43)[C@]2(C(=O)N(C)C)C1 (relative stereo) [Example 55, (3aRS,4SR,9SR,9aRS)-N,N-dimethyl-4,9-ethano-2-(2-methoxyphenyl)acetyl-9-phenyl-2,3,3a,4,9,9a-hexahydro-1H-benzo[f]isoindole-3a-carboxamide] | –

Source: patent US5936097A, “4,9-ethano-benzo(F)isoindole derivatives as farnesyl transferase inhibitors” (Rhone-Poulenc Rorer, S.A., priority 1995, dated 1999)
